Target: recombinant human integrin αvβ6 (Homo sapiens, UniProt P06756+P18564)
Experiment: Solid phase integrin αvβ6 binding assay
Settings: read-out: αvβ6 Inhibition IC50 (nM) - range
Protocol: Microplates were coated with recombinant human integrin αvβ6 (2 μg/mL) in PBS (100 μL/well 25° C., overnight). The coating solution was removed, washed with wash buffer (0.05% Tween 20; 0.5 mM MnCl2; in 1×TBS). The plate was blocked with 200 μL/well of Block Buffer (1% BSA; 5% sucrose; 0.5 mM MnCl2; in 1×TBS) at 37° C. for 2 h. Dilutions of testing compounds and recombinant TGFβ1 LAP (0.67 μg/mL) in binding buffer (0.05% BSA; 2.5% sucrose; 0.5 mM MnCl2; in 1×TBS) were added. The plate was incubated for 2 hours at 25° C., washed, and incubated for 1 hour with Biotin-Anti-hLAP. Bound antibody was detected by peroxidase-conjugated streptavidin. The IC50 values for testing compounds were calculated by a four-parameter logistic regression.
The compounds tested were compound samples prepared according to procedures described in the Synthetic Examples section, with the stereochemical purity as indicated in the Examples.

recombinant human integrin αvβ6, sequence (P06756 31-992 limits assumed): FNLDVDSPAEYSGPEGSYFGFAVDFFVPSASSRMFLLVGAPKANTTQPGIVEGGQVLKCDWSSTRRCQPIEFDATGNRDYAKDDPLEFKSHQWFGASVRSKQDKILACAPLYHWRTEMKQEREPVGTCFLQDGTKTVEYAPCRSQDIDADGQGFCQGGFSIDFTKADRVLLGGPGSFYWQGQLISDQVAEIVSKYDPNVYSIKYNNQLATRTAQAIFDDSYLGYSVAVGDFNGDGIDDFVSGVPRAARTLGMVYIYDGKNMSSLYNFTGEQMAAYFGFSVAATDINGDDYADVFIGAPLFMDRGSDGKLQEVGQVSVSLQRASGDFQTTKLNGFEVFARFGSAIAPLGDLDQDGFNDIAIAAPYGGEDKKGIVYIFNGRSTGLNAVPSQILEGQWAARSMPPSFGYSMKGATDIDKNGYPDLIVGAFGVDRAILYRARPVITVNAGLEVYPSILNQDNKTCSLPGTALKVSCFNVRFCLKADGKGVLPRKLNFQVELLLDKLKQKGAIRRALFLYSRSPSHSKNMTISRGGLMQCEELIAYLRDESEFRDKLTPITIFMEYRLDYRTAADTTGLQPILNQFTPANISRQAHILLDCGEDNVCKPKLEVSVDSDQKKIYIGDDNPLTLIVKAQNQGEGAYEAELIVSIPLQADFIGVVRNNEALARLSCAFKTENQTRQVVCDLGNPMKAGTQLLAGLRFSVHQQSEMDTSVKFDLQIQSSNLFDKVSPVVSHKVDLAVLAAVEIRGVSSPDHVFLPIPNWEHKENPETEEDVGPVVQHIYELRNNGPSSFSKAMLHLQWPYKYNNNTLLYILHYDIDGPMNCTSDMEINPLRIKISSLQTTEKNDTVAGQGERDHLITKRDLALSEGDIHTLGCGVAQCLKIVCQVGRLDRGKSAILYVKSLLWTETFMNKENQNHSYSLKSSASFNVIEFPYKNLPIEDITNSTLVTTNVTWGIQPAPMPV
recombinant human integrin αvβ6, sequence (P18564 22-707 limits assumed): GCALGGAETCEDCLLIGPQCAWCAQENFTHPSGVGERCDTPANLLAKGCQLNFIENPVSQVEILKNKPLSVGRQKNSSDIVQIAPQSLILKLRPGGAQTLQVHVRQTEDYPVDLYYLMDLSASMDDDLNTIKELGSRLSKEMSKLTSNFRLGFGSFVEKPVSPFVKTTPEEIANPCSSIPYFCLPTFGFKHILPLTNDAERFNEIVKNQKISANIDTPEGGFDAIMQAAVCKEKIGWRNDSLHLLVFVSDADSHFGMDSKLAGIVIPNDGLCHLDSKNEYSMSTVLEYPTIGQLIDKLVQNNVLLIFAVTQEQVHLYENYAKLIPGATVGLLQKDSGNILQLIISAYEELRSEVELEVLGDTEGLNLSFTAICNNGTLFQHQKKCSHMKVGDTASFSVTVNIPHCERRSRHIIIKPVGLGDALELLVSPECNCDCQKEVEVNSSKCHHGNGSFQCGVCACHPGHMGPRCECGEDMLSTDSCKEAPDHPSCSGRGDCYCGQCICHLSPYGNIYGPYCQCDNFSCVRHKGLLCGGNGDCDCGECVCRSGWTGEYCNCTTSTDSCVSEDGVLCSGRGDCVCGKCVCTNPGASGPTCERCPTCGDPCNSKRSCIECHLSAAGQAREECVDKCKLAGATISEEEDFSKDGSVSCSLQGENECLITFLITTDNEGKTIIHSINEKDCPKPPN

| Structure (SMILES) | IC50 [nM] |
| --- | --- |
| O=C(O)[C@H](CCN(CCCCc1ccc2c(n1)NCCC2)C1CC1)Nc1ccncn1 [Compound 2, (S)-4-(cyclopropyl(4-(5,6,7,8-tetrahydro-1,8-naphthyridin-2-yl)butyl)amino)-2-(pyrimidin-4-ylamino) butanoic acid] | 250 to 1000 |
| COCCN(CCCCc1ccc2c(n1)NCCC2)CC[C@H](Nc1ncnc2cc(F)ccc12)C(=O)O [Compound 7, (S)-2-((7-fluoroquinazolin-4-yl)amino)-4-((2-methoxyethyl) (4-(5,6,7,8-tetrahydro-1,8-naphthyridin-2-yl)butyl)amino) butanoic acid] | < 50 |
| COCCN(CCCCc1ccc2c(n1)NCCC2)CC[C@H](Nc1ncnc2cccnc12)C(=O)O [Compound 16, (S)-4-((2-methoxyethyl) (4-(5,6,7,8-tetrahydro-1,8-naphthyridin-2-yl)butyl)amino)-2-(pyrido[3,2-d]pyrimidin-4-ylamino) butanoic acid] | < 50 |
| CO[C@@H](C)CN(CCCCc1ccc2c(n1)NCCC2)CC[C@H](Nc1ncnc2ccccc12)C(=O)O [Compound 25, (S)-4-(((S)-2-methoxypropyl) (4-(5,6,7,8-tetrahydro-1,8-naphthyridin-2-yl)butyl)amino)-2-(quinazolin-4-ylamino) butanoic acid] | < 50 |
| CS(=O)(=O)CCN(CCCCc1ccc2c(n1)NCCC2)CC[C@H](Nc1ncnc2ccccc12)C(=O)O [Compound 27, (S)-4-((2-(methylsulfonyl)ethyl) (4-(5,6,7,8-tetrahydro-1,8-naphthyridin-2-yl)butyl)amino)-2-(quinazolin-4-ylamino) butanoic acid] | < 50 |
| O=C(O)[C@H](CCN(CCCCc1ccc2c(n1)NCCC2)CCC(F)F)Nc1ncnc2ccccc12 [Compound 29, (S)-4-((3,3-difluoropropyl) (4-(5,6,7,8-tetrahydro-1,8-naphthyridin-2-yl)butyl)amino)-2-(quinazolin-4-ylamino) butanoic acid] | < 50 |
| COCCN(CCCCc1ccc2c(n1)NCCC2)CC[C@H](Nc1nccc2ccccc12)C(=O)O [Compound 34, (S)-2-(isoquinolin-1-ylamino)-4-((2-methoxyethyl) (4-(5,6,7,8-tetrahydro-1,8-naphthyridin-2-yl)butyl)amino) butanoic acid] | > 1000 |
| COCCN(CCCCc1ccc2c(n1)NCCC2)CC[C@H](Nc1ccnc2ccccc12)C(=O)O [Compound 36, (S)-4-((2-methoxyethyl) (4-(5,6,7,8-tetrahydro-1,8-naphthyridin-2-yl)butyl)amino)-2-(quinolin-4-ylamino) butanoic acid] | > 1000 |
| COCCN(CCCCc1ccc2c(n1)NCCC2)CC[C@H](Nc1cc(-n2cccn2)ncn1)C(=O)O [Compound 44, (S)-2-((6-(1H-pyrazol-1-yl)pyrimidin-4-yl)amino)-4-((2-methoxyethyl) (4-(5,6,7,8-tetrahydro-1,8-naphthyridin-2-yl)butyl)amino) butanoic acid] | < 50 |
| CO[C@H](C)CN(CCCCc1ccc2c(n1)NCCC2)CC[C@H](Nc1ncnc2ccccc12)C(=O)O [Compound 62, (S)-4-(((R)-2-methoxypropyl) (4-(5,6,7,8-tetrahydro-1,8-naphthyridin-2-yl)butyl)amino)-2-(quinazolin-4-ylamino) butanoic acid] | < 50 |
| CO[C@H](C)CN(CCCCc1ccc2c(n1)NCCC2)CC[C@H](Nc1ncc(C#N)cn1)C(=O)O [Compound 68, (S)-2-((5-cyanopyrimidin-2-yl)amino)-4-(((R)-2-methoxypropyl) (4-(5,6,7,8-tetrahydro-1,8-naphthyridin-2-yl)butyl)amino) butanoic acid] | < 50 |
| O=C(O)[C@H](CCN(CCO)CCCCc1ccc2c(n1)NCCC2)Nc1ncnc2ccccc12 [Compound 75, (S)-4-((2-hydroxyethyl) (4-(5,6,7,8-tetrahydro-1,8-naphthyridin-2-yl)butyl)amino)-2-(quinazolin-4-ylamino) butanoic acid] | < 50 |
| CO[C@H](C)CN(CCCCc1ccc2c(n1)NCCC2)CC[C@H](Nc1cc(-c2ccccc2)ncn1)C(=O)O [Compound 80, (S)-4-(((R)-2-methoxypropyl) (4-(5,6,7,8-tetrahydro-1,8-naphthyridin-2-yl)butyl)amino)-2-((6-phenylpyrimidin-4-yl)amino) butanoic acid] | < 50 |

Second part, the molecule after the results:

| IC50 [nM] | Structure (SMILES) |
| --- | --- |
| < 50 | CO[C@H](C)CN(CCCCc1ccc2c(n1)NCCC2)CC[C@H](Nc1ncncc1-c1ccccc1)C(=O)O [Compound 81, (S)-4-(((R)-2-methoxypropyl) (4-(5,6,7,8-tetrahydro-1,8-naphthyridin-2-yl)butyl)amino)-2-((5-phenylpyrimidin-4-yl)amino) butanoic acid] |
| < 50 | Cn1ncc2c(N[C@@H](CCN(CCCCc3ccc4c(n3)NCCC4)CCOc3ccccc3)C(=O)O)ncnc21 [Compound 82, (S)-2-((1-methyl-1H-pyrazolo[3,4-d]pyrimidin-4-yl)amino)-4-((2-phenoxyethyl) (4-(5,6,7,8-tetrahydro-1,8-naphthyridin-2-yl)butyl)amino) butanoic acid] |
| 250 to 1000 | COC[C@@H](F)CN(CCCCc1ccc2c(n1)NCCC2)CC[C@H](Nc1ncc(C#N)cn1)C(=O)O [Compound 84, (S)-2-((5-cyanopyrimidin-2-yl)amino)-4-(((S)-2-fluoro-3-methoxypropyl) (4-(5,6,7,8-tetrahydro-1,8-naphthyridin-2-yl)butyl)amino) butanoic acid] |
| > 1000 | Cn1ncc2c(N[C@@H](CCN(CCCCc3ccc4c(n3)NCCC4)CC(F)F)C(=O)O)ncnc21 [Compound 88, (S)-4-((2,2-difluoroethyl) (4-(5,6,7,8-tetrahydro-1,8-naphthyridin-2-yl)butyl)amino)-2-((1-methyl-1H-pyrazolo[3,4-d]pyrimidin-4-yl)amino) butanoic acid] |
| 50 to 250 | Cn1ncc2c(N[C@@H](CCN(CCCCc3ccc4c(n3)NCCC4)CCS(C)(=O)=O)C(=O)O)ncnc21 [Compound 101, (S)-2-((1-methyl-1H-pyrazolo[3,4-d]pyrimidin-4-yl)amino)-4-((2-(methylsulfonyl)ethyl) (4-(5,6,7,8-tetrahydro-1,8-naphthyridin-2-yl)butyl)amino) butanoic acid] |
| < 50 | CO[C@H](C)CN(CCCCc1ccc2c(n1)NCCC2)CC[C@H](Nc1ccncn1)C(=O)O [Compound 106, (S)-4-(((R)-2-methoxypropyl) (4-(5,6,7,8-tetrahydro-1,8-naphthyridin-2-yl)butyl)amino)-2-(pyrimidin-4-ylamino) butanoic acid] |
| > 1000 | O=C(O)[C@H](CCN(CCCCc1ccc2c(n1)NCCC2)CC(F)F)Nc1ncncc1-c1ccccc1 [Compound 119, (S)-4-((2,2-difluoroethyl) (4-(5,6,7,8-tetrahydro-1,8-naphthyridin-2-yl)butyl)amino)-2-((5-phenylpyrimidin-4-yl)amino) butanoic acid] |
| < 50 | Cn1ncc2c(N[C@@H](CCN(CCCCc3ccc4c(n3)NCCC4)CCOc3ccc(F)cc3)C(=O)O)ncnc21 [Compound 123, (S)-4-((2-(4-fluorophenoxy)ethyl) (4-(5,6,7,8-tetrahydro-1,8-naphthyridin-2-yl)butyl)amino)-2-((1-methyl-1H-pyrazolo[3,4-d]pyrimidin-4-yl)amino) butanoic acid] |
| < 50 | CO[C@H](C)CN(CCCCc1ccc2c(n1)NCCC2)CC[C@H](Nc1ncc(C2CC2)cn1)C(=O)O [Compound 124, (S)-2-((5-cyclopropylpyrimidin-2-yl)amino)-4-(((R)-2-methoxypropyl) (4-(5,6,7,8-tetrahydro-1,8-naphthyridin-2-yl)butyl)amino) butanoic acid] |
| 250 to 1000 | COC[C@@H](F)CN(CCCCc1ccc2c(n1)NCCC2)CC[C@H](Nc1ccncn1)C(=O)O [Compound 127, (S)-4-(((S)-2-fluoro-3-methoxypropyl) (4-(5,6,7,8-tetrahydro-1,8-naphthyridin-2-yl)butyl)amino)-2-(pyrimidin-4-ylamino) butanoic acid] |
| > 1000 | COC[C@@H](F)CN(CCCCc1ccc2c(n1)NCCC2)CC[C@H](Nc1cc(-c2ccccc2)ncn1)C(=O)O [Compound 128, (S)-4-(((S)-2-fluoro-3-methoxypropyl) (4-(5,6,7,8-tetrahydro-1,8-naphthyridin-2-yl)butyl)amino)-2-((6-phenylpyrimidin-4-yl)amino) butanoic acid] |
| 50 to 250 | O=C(O)[C@H](CCN(CCCCc1ccc2c(n1)NCCC2)CCC(F)F)Nc1ncc(Br)cn1 [Compound 131, (S)-2-((5-bromopyrimidin-2-yl)amino)-4-((3,3-difluoropropyl) (4-(5,6,7,8-tetrahydro-1,8-naphthyridin-2-yl)butyl)amino) butanoic acid] |
| 50 to 250 | O=C(O)[C@H](CCN(CCCCc1ccc2c(n1)NCCC2)CCC(F)F)Nc1ncc(C2CC2)cn1 [Compound 135, (S)-2-((5-cyclopropylpyrimidin-2-yl)amino)-4-((3,3-difluoropropyl) (4-(5,6,7,8-tetrahydro-1,8-naphthyridin-2-yl)butyl)amino) butanoic acid] |
| < 50 | Cn1ncc2c(N[C@@H](CCN(CCCF)CCCCc3ccc4c(n3)NCCC4)C(=O)O)ncnc21 [Compound 136, (S)-4-((3-fluoropropyl) (4-(5,6,7,8-tetrahydro-1,8-naphthyridin-2-yl)butyl)amino)-2-((1-methyl-1H-pyrazolo[3,4-d]pyrimidin-4-yl)amino) butanoic acid] |

Source: patent publication US20230028658A1, “EXPANDED DOSAGE REGIMENS FOR INTEGRIN INHIBITORS” (Pliant Therapeutics, Inc., priority 2021, published 2023)
